The target of this assay is endogenous cellular BACE2 in the Ins1e rat cell line (Rattus norvegicus (Rat), UniProt Q6IE75). Kind of assay: Assay for BACE inhibition by measuring cellular TMEM27 cleavage (ELISA of shed hTMEM27 from INS-TMEM27 cells). The assay is classed as cell-based. The conditions noted are these: assay a): cellular TMEM27 cleavage, INS-TMEM27 cells (superscript a). From the text: a) Assay for BACE Inhibition by Measuring Cellular TMEM27 Cleavage:
The assay uses the principle of inhibition of human TMEM27 cleavage by endogenous cellular BACE2 in the Ins1e rat cell line and shedding from the cell surface into the culture medium, followed by detection in an ELISA assay. Inhibition of BACE2 prevents the cleavage and shedding in a dose-dependent manner.
The stable cell line “INS-TMEM27” represents an INS1e-derived cell line with inducible expression (using the TetOn system) of full-length hTMEM27 in a doxycycline-dependent manner. The cells are cultured throughout the experiment in RPMI1640+Glutamax (Invitrogen) Penicillin/Streptomycin, 10% Fetal bovine serum, […], […], 100 micrograms/ml G418 and 100 microgram/ml hygromycin and are grown inadherent culture at 37° C. in a standard CO2 cell culture incubator.
INS-TMEM27 cells are seeded in 96-well plates. After 2 days in culture, BACE2 inhibitor is added in a range of concentrations as required by the assay and after a further two hours, doxycycline is added to a final concentration of 500 ng/ml. The cells are incubated for a further 46 hours and the supernatant harvested for detection of shed TMEM27.
An ELISA assay (using a pair of mouse anti-human-TMEM27 antibodies, raised against the extracellular domain of TMEM27) is used for detection of TMEM27 in the culture medium. An EC50 for BACE2 inhibition is calculated using the ELISA readout for each inhibitor concentration with standard curve-fitting software such as XLFit for the Excel spreadsheet program.
A general note: ELISA stands for enzyme-linked immunosorbent assay.

Molecules are shown by their SMILES.

Chain of endogenous cellular BACE2 in the Ins1e rat cell line (Q6IE75 63-514): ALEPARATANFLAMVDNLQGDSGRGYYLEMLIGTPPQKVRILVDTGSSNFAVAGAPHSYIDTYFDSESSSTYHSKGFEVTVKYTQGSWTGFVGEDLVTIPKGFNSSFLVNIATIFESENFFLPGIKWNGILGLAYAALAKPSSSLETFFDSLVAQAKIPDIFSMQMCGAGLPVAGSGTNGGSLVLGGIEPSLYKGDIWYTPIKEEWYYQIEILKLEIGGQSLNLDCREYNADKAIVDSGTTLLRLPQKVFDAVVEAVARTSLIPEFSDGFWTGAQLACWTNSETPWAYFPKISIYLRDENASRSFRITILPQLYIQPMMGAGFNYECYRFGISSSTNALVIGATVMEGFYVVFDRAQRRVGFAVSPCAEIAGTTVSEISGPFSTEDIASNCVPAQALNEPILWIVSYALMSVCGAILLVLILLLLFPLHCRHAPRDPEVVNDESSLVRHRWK

Turning to `Cc1cc(Nc2ccc(F)c([C@@]3(C)N=C(N)N(C)C(=O)C3(C)C)c2)ccc1C#N` [Example 149, (S)-4-(3-(2-Amino-1,4,5,5-tetramethyl-6-oxo-1,4,5,6-tetrahydropyrimidin-4-yl)-4-fluorophenylamino)-2-methylbenzonitrile], the midpoint of inhibition, the IC50, lay at 0.081 µM.
Next, `CN1C(=O)C(C)(C)[C@@](C)(c2cc(NC3CCN(Cc4ccccc4)C3)ccc2F)N=C1N` (stereo partly drawn) [Example 32, (6S)-2-Amino-6-(5-(1-benzylpyrrolidin-3-ylamino)-2-fluorophenyl)-3,5,5,6-tetramethyl-5,6-dihydropyrimidin-4(3H)-one]: 0.032 µM; `Cc1cn[nH]c1CNc1ccc(F)c([C@@]2(C)N=C(N)N(C)C(=O)C2(C)C)c1` [Example 110, (S)-2-Amino-6-{2-fluoro-5-[(4-methyl-2H-pyrazol-3-ylmethyl)-amino]-phenyl}-3,5,5,6-tetramethyl-5,6-dihydro-3H-pyrimidin-4-one]: 0.391 µM; `CN1C(=O)C(C)(C)[C@@](C)(c2cc(NC3CCOc4cc(F)ccc43)ccc2F)N=C1N` (stereo partly drawn) [Example 140, (S)-2-Amino-6-[2-fluoro-5-(7-fluoro-chroman-4-ylamino)-phenyl]-3,5,5,6-tetramethyl-5,6-dihydro-3H-pyrimidin-4-one]: 0.047 µM.
As to `COc1cccc2c1CCC2Nc1ccc(F)c([C@@]2(C)N=C(N)N(C)C(=O)C2(C)C)c1` (stereo partly drawn) [Example 47, (S)-2-Amino-6-[2-fluoro-5-(4-methoxy-indan-1-ylamino)-phenyl]-3,5,5,6-tetramethyl-5,6-dihydro-3H-pyrimidin-4-one], the 50% inhibitory concentration (IC50) (in general, the concentration that inhibits the measured activity by half) is 0.217 µM.
The molecule `CN1C(=O)C(C)(C)[C@@](C)(c2cc(NC(=O)C3(C(F)(F)F)CCC3)ccc2F)N=C1N` [Example 4, 1-Trifluoromethyl-cyclobutanecarboxylic acid [3-((S)-2-amino-1,4,5,5-tetramethyl-6-oxo-1,4,5,6-tetrahydro-pyrimidin-4-yl)-4-fluoro-phenyl]-amide] displayed an IC50 of 0.085 µM.
Molecule `CN1C(=O)C(C)(C)[C@@](C)(c2cc(NC3CCc4cc(F)ccc43)ccc2F)N=C1N` (stereo partly drawn) [Example 35, (6S)-2-Amino-6-(2-fluoro-5-(5-fluoro-2,3-dihydro-1H-inden-1-ylamino)phenyl)-3,5,5,6-tetramethyl-5,6-dihydropyrimidin-4(3H)-one] showed an IC50 of 0.084 µM.
As to `Cc1cc(Nc2ccc(F)c([C@@]3(C)N=C(N)N(C)C(=O)C3(C)C)c2)n(C)n1` [Example 39, (S)-2-Amino-6-[5-(2,5-dimethyl-2H-pyrazol-3-ylamino)-2-fluoro-phenyl]-3,5,5,6-tetramethyl-5,6-dihydro-3H-pyrimidin-4-one], the IC50 came to 0.234 µM.
In the case of `CN1C(=O)C(C)(C)[C@@](C)(c2cc(NCc3ncccn3)ccc2F)N=C1N` [Example 85, (S)-2-Amino-6-{2-fluoro-5-[(pyrimidin-2-ylmethyl)-amino]-phenyl}-3,5,5,6-tetramethyl-5,6-dihydro-3H-pyrimidin-4-one], the IC50 came out at 0.101 µM.
Next, `CN1C(=O)C(C)(C)[C@@](C)(c2cc(NC(=O)CC3CCC3)ccc2F)N=C1N` [Example 27, (S)—N-(3-(2-amino-1,4,5,5-tetramethyl-6-oxo-1,4,5,6-tetrahydropyrimidin-4-yl)-4-fluorophenyl)-2-cyclobutylacetamide]: 0.157 µM.
Next, `CN1C(=O)C(C)(C)[C@@](C)(c2cc(NC3COC3)ccc2F)N=C1N` [Example 132, (S)-2-Amino-6-[2-fluoro-5-(oxetan-3-ylamino)-phenyl]-3,5,5,6-tetramethyl-5,6-dihydro-3H-pyrimidin-4-one]: 0.054 µM.
Molecule `CN1C(=O)C(C)(C)[C@@](C)(c2cc(Nc3ccc(C#N)cc3F)ccc2F)N=C1N` [Example 152, (S)-4-(3-(2-Amino-1,4,5,5-tetramethyl-6-oxo-1,4,5,6-tetrahydropyrimidin-4-yl)-4-fluorophenylamino)-3-fluorobenzonitrile] gave an IC50 of 0.002 µM.
For `CN1C(=O)C(C)(C)[C@@](C)(c2cc(Nc3cc(F)ccc3F)ccc2F)N=C1N` [Example 145, (S)-2-Amino-6-[5-(2,5-difluoro-phenylamino)-2-fluoro-phenyl]-3,5,5,6-tetramethyl-5,6-dihydro-3H-pyrimidin-4-one] the value was 0.014 µM; for `CN1C(=O)C(C)(C)[C@@](C)(c2cc(NC3CCCOC3)ccc2F)N=C1N` (stereo partly drawn) [Example 45, (S)-2-Amino-6-[2-fluoro-5-(tetrahydro-pyran-3-ylamino)-phenyl]-3,5,5,6-tetramethyl-5,6-dihydro-3H-pyrimidin-4-one], 0.011 µM.
The molecule `CN1C(=O)C(C)(C)[C@@](C)(c2cc(NC3CC(C)(C)c4ccccc43)ccc2F)N=C1N` (stereo partly drawn) [Example 106, (6S)-2-Amino-6-(5-(3,3-dimethyl-2,3-dihydro-1H-inden-1-ylamino)-2-fluorophenyl)-3,5,5,6-tetramethyl-5,6-dihydropyrimidin-4(3H)-one] showed an IC50 of 0.002 µM.
With `CN1C(=O)C(C)(C)[C@@](C)(c2cc(NCCC(F)(F)F)ccc2F)N=C1N` [Example 54, (S)-2-Amino-6-(2-fluoro-5-(3,3,3-trifluoropropylamino)phenyl)-3,5,5,6-tetramethyl-5,6-dihydropyrimidin-4(3H)-one], it took 0.076 µM to reach half-maximal inhibition (IC50).
For `CN1C(=O)C(C)(C)[C@@](C)(c2cc(NC3CCc4cccc(Cl)c43)ccc2F)N=C1N` (stereo partly drawn) [Example 49, (S)-2-Amino-6-[5-(7-chloro-indan-1-ylamino)-2-fluoro-phenyl]-3,5,5,6-tetramethyl-5,6-dihydro-3H-pyrimidin-4-one] the value was 0.321 µM; for `CN1C(=O)C(C)(C)[C@@](C)(c2cc(NC3CCOC3)ccc2F)N=C1N` (stereo partly drawn) [Example 22, (S)-2-Amino-6-[2-fluoro-5-(tetrahydro-furan-3-ylamino)-phenyl]-3,5,5,6-tetramethyl-5,6-dihydro-3H-pyrimidin-4-one], 0.005 µM.
On to `Cc1cc(C)c(Nc2ccc(F)c([C@@]3(C)N=C(N)N(C)C(=O)C3(C)C)c2)cc1C` [Example 146, (S)-2-Amino-6-(2-fluoro-5-(2,4,5-trimethylphenylamino)phenyl)-3,5,5,6-tetramethyl-5,6-dihydropyrimidin-4(3H)-one], for which 0.257 µM corresponded to half-maximal inhibition (IC50).
Next, `COC(=O)c1ccc(Nc2ccc(F)c([C@@]3(C)N=C(N)N(C)C(=O)C3(C)C)c2)c(OC)c1` [Example 123, (S)-Methyl-4-(3-(2-amino-1,4,5,5-tetramethyl-6-oxo-1,4,5,6-tetrahydropyrimidin-4-yl)-4-fluorophenylamino)-3-methoxybenzoate]: 0.046 µM.
The molecule `COc1cc(C(F)(F)F)ccc1Nc1ccc(F)c([C@@]2(C)N=C(N)N(C)C(=O)C2(C)C)c1` [Example 94, (S)-2-Amino-6-[2-fluoro-5-(2-methoxy-(4-trifluoromethyl)-phenylamino)-phenyl]-3,5,5,6-tetramethyl-5,6-dihydro-3H-pyrimidin-4-one] registered a half-maximal inhibitory concentration (IC50) of 0.704 µM.
For `Cc1nc(C(C)Nc2ccc(F)c([C@@]3(C)N=C(N)N(C)C(=O)C3(C)C)c2)c(C(F)(F)F)o1` (stereo partly drawn) [Example 159, (S)-2-Amino-6-{2-fluoro-5-[1-(2-methyl-5-trifluoromethyl-oxazol-4-yl)-ethylamino]-phenyl}-3,5,5,6-tetramethyl-5,6-dihydro-3H-pyrimidin-4-one] the value was 0.024 µM.
`CN1C(=O)C(C)(C)[C@@](C)(c2cc(NC(=O)C(C)(O)c3ccccc3)ccc2F)N=C1N` (stereo partly drawn) [Example 139, N-[3-((S)-2-Amino-1,4,5,5-tetramethyl-6-oxo-1,4,5,6-tetrahydro-pyrimidin-4-yl)-4-fluoro-phenyl]-2-hydroxy-2-phenyl-propionamide]: half-maximal inhibition (IC50) required 0.031 µM.
`CN1C(=O)C(C)(C)[C@@](C)(c2cc(NCc3nn(C(F)F)cc3Cl)ccc2F)N=C1N` [Example 160, (S)-2-Amino-6-{5-[(4-chloro-1-difluoromethyl-1H-pyrazol-3-ylmethyl)-amino]-2-fluoro-phenyl}-3,5,5,6-tetramethyl-5,6-dihydro-3H-pyrimidin-4-one] had an IC50 of 0.006 µM.
Next, `CN1C(=O)C(C)(C)[C@@](C)(c2cc(NC(=O)C3(C(F)(F)F)CC3)ccc2F)N=C1N` [Example 5, 1-Trifluoromethyl-cyclopropanecarboxylic acid [3-((S)-2-amino-1,4,5,5-tetramethyl-6-oxo-1,4,5,6-tetrahydro-pyrimidin-4-yl)-4-fluoro-phenyl]-amide]: 0.011 µM; `CCNc1ccc(F)c([C@@]2(C)N=C(N)N(C)C(=O)C2(C)C)c1` [Example 91, (S)-2-Amino-6-(5-ethylamino-2-fluoro-phenyl)-3,5,5,6-tetramethyl-5,6-dihydro-3H-pyrimidin-4-one]: 0.322 µM; `CN1C(=O)C(C)(C)[C@@](C)(c2cc(NCC3(c4ccccc4)CC3)ccc2F)N=C1N` [Example 53, (S)-2-Amino-6-{2-fluoro-5-[(1-phenyl-cyclopropylmethyl)-amino]-phenyl}-3,5,5,6-tetramethyl-5,6-dihydro-3H-pyrimidin-4-one]: 0.153 µM.
Next, `CN1C(=O)C(C)(C)[C@@](C)(c2cc(NC3CCCC3Cl)ccc2F)N=C1N` (stereo partly drawn) [Example 30, (6S)-2-Amino-6-(5-(2-chlorocyclopentylamino)-2-fluorophenyl)-3,5,5,6-tetramethyl-5,6-dihydropyrimidin-4(3H)-one]: 0.033 µM.

The record behind these values is patent publication US8815881B2 (Hoffmann-La Roche Inc., priority 2010, dated 2014).
